Laboratory results reported in US10398142B2, “Polycationic amphiphiles as antimicrobial agents” (priority 2013, dated 2019).
Where two headings read alike, the source gives them in different places. Marks after values point to notes of the source that are not given here.

How the values were obtained:
[1] = tested on: S. aureus (MSSA, SH1000) biofilms; assay: Minimum biofilm eradication concentration (MBEC), regrowth assay; format: cell-based, Staphylococcus aureus; conditions: for MBEC MSSA: Table 5, SH1000
Outline: (§1)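 Static 24 h biofilms at 37° C. (BHI for S. aureus, Todd Hewitt for E. faecalis), then 16 h compound exposure, PBS washes and overnight regrowth in fresh media. MBEC is the lowest concentration giving final OD595 below 0.1; four replicates per concentration.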

[2] = tested on: Escherichia coli (MC4100); assay: Minimum inhibitory concentration (MIC), broth microdilution; format: cell-based; conditions: for MIC: read-out: MIC E. coli
Outline: (§2)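 Broth microdilution: two-fold serial dilutions (twelve concentrations) mixed 1:1 with overnight cultures diluted to ca. 10^6 cfu/mL in Mueller-Hinton media, incubated statically at 37° C for 72 hours. MIC is lowest concentration with no growth visible to the naked eye, majority of three independent experiments.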

[3] = tested on: Enterococcus faecalis (OG1RF); assay: as above; format: cell-based; conditions: for MIC: read-out: MIC E. faecalis
Outline: as §2

[4] = tested on: Pseudomonas aeruginosa (PAO1); assay: as above; format: cell-based
Outline: as §2

[5] = tested on: Staphylococcus aureus MSSA (SH1000); assay: as above; format: cell-based
Outline: as §2

MSSA (SH1000) = assay: Resistance development, liquid culture serial passage; format: cell-based, Staphylococcus aureus; conditions: for resistance in serial passage, MSSA: over 24 days (>500 generations); for elevated concentration with consistent growth: MSSA (SH1000) passaged with sub-lethal doses
Protocol: (§3) Resistance development such as liquid culture resistance assay was performed. […] Once a day, an aliquot of bacterial culture from the highest concentration allowing bacterial growth was diluted 1:10,000 in fresh media containing a range of antibacterial compound. This process was repeated for several hundred generations.
(§4) Resistance Development Assays: Liquid culture serial passage protocols, in which bacteria are successively grown at sub-lethal concentrations of antibacterial compound, were employed.

CA-MRSA (USA300-0114) [6] = assay: as above; format: cell-based, Staphylococcus aureus; conditions: for resistance in serial passage, CA-MRSA (USA300-0114): over 24 days (>500 generations)
Protocol: as §3, §4

S. aureus biofilms = assay: Crystal violet staining and confocal microscopy of pre-established biofilms; format: cell-based, Staphylococcus aureus; conditions: compared to the aqueous control or norspermidine; 16 h post-treatment
Protocol: Left: Submerged S. aureus biofilms 16 h post-treatment with the indicated final well concentration of compound. Middle: Biofilms stained with 1% crystal violet. Right: Confocal microscopy images of biofilms 16 h post-treatment.
The inventors have determined that both cationic character and alkyl side chains are important for biofilm eradication.

HA-MRSA (ATCC 33591) = assay: Minimum inhibitory concentration (MIC), broth microdilution; format: cell-based, Staphylococcus aureus; conditions: for MIC: read-out: MIC HA-MRSA
Protocol: (§5) Different biological assays were performed. […] All cultures, with the exception of E. faecalis, were grown with shaking at 250 rpm.
(§6) Minimum inhibitory concentration (MIC) values against bacteria were measured using standard method. Compounds were serially diluted two-fold from an aqueous stock solution to yield twelve test concentrations. Overnight S. aureus, E. faecalis, E. coli, P. aeruginosa, CA-MRSA, and HA-MRSA cultures diluted to ca. 10^6 cfu/mL in Mueller-Hinton media and 100 μL were inoculated into each well of a U-bottom 96-well plate (BD Biosciences, BD351177) containing 100 μL of compound solution. Plates were incubated statically at 37° C. for 72 hours upon which time wells were evaluated visually for bacterial growth. The MIC was determined as the lowest concentration of compound resulting in no bacterial growth visible to the naked eye, based on the majority of three independent experiments. Positive and negative aqueous and media controls were conducted for each trial.

CA-MRSA (USA300-0114) [7] = assay: as above; format: cell-based, Staphylococcus aureus; conditions: for MIC: read-out: MIC CA-MRSA
Protocol: as §5, §6

[8] = tested on: red blood cells (defibrinated sheep blood); assay: Hemolysis assay (Lysis20); conditions: concentration at which less than 20% of red blood cells are lysed
Protocol: Hemolysis assays (Lysis20) were performed according to the procedure detailed in Peng, L., DeSousa, J., Su, Z., Novak, B. M., Nevzorov, A. A., Garland, E. R., and Melander, C., Inhibition of Acinetobacter baumannii biofilm formation on a methacrylate polymer containing a 2-aminoimidazole subunit, Chem. Comm. 2011, 47, 4896-4898. Defibrinated sheep blood was purchased from Hemostat Labs (DSB 100). Compounds representative of each class were serially diluted in sterile PBS from aqueous stock solutions and incubated with resuspended blood cells. The OD of the final suspensions were measured directly using plate reader. TritonX (1% by volume) served as a positive control (100% lysis marker) and sterile PBS served as a negative control (0% lysis marker).
Lysis20 indicates the concentration of compound (in μM) at which less than 20% of red blood cells are lysed.

[9] = tested on: CA-MRSA (USA300-0114) biofilms; assay: Minimum biofilm eradication concentration (MBEC), regrowth assay; format: cell-based, Staphylococcus aureus; conditions: for MBEC CA-MRSA: Table 5, USA300-0114
Protocol: A regrowth assay was used to establish the MBEC of a compound to evaluate the antibiofilm activity. See also H. Ceri, M. Olson, D. Morck, D. Storey, R. Read, A. Buret, B. Olson, Methods Enzymol. 2001, 337, 377.
Different biological assays were performed. For all biological assays, laboratory strains of methicillin-susceptible Staphylococcus aureus MSSA (SH1000), Enterococcus faecalis (OG1RF), Escherichia coli (MC4100), Pseudomonas aeruginosa (PAO1), community-acquired methicillin-resistant Staphylococcus aureus CA-MRSA (USA300-0114), and hospital-acquired methicillin-resistant Staphylococcus aureus HA-MRSA (ATCC 33591) were grown at 37° C. overnight from freezer stocks in 10 mL of the media indicated for each assay. All cultures, with the exception of E. faecalis, were grown with shaking at 250 rpm.
Minimum biofilm eradication concentration (MBEC) was also measured. To each well of a flat-bottomed 96-well plate (Corning 3370), 8 μL of overnight bacterial culture was brought to a volume of 200 μL with fresh media (BHI for S. aureus and MRSA, Todd Hewitt (TH) for E. faecalis). Plates were incubated statically for 24 hours at 37° C. to establish biofilms. After 24 hours, the wells were carefully emptied by inverting the plate and gently shaking. A pre-mixed solution of media and aqueous compound stock solution was added to each well and plates were incubated at 37° C. 16 hours after pre-established biofilms were treated with compound, the media from each well was removed, biofilms were washed three times with 200 μL PBS to remove planktonic cells, and biofilms were incubated overnight at 37° C. in 200 μL of fresh media to allow any viable cells to continue growing. The wells were then vigorously pipetted to resuspend the biofilm cells and the OD at 595 nm was measured using a plate reader (POLARstar Omega, BMG Labtech). Biofilms reaching a final OD of less than 0.1 were considered eradicated and the lowest concentration of antibiotic corresponded to the MBEC. Four replicates were completed for each concentration of compound as well as positive and negative controls.

E. faecalis biofilms = assay: as above; format: cell-based, Enterococcus faecalis
Outline: as §1

[10] = Table 2, pre-established biofilm, ± values varied between 50 and 100 μM for the six trials
[11] = Table 1, read-out: MIC P. aeruginosa
[12] = Table 1, read-out: MIC S. aureus
[13] = Table 4, SH1000, read-out: MIC MSSA
[14] = table for compound (12,3,2,3,12)
[15] = over a period of at least 14 days
[16] = Table 3, read-out: MIC P. aeruginosa
[17] = Table 3, read-out: MIC S. aureus

SMILES | MBEC S. aureus [1, 10] [µM] | MBEC MSSA [1] [µM] | MIC ([2]; Table 1) [µM] | MIC ([3]; Table 1) [µM] | MIC [4, 11] [µM] | MIC [5, 12] [µM] | MIC [5, 13] [µM] | resistance in serial passage, MSSA (MSSA (SH1000)) | resistance in serial passage, CA-MRSA (USA300-0114) (CA-MRSA (USA300-0114) [6]) | effect against pre-established biofilms, crystal violet staining (S. aureus biofilms) | MIC (HA-MRSA (ATCC 33591); Table 4, ATCC 33591) [µM] | MIC (CA-MRSA (USA300-0114) [7]; Table 4, USA300-0114) [µM] | Lysis20 ([8]; Table 4) [µM] | MBEC CA-MRSA [9] [µM] | MBEC E. faecalis (E. faecalis biofilms; [10]) | MBEC E. faecalis (E. faecalis biofilms; Table 5) [µM] | MIC ([2]; Table 3) [µM] | MIC ([3]; Table 3) [µM] | MIC [4, 16] [µM] | MIC [5, 17] [µM] | also measured
CCCCCCCCCCCC[N+](C)(C)CCC[N+](C)(C)CCCCCCCCCCCC.[Br-].[Br-] [12,3,12] | 100 | 75 ± 25 | 1 | 1 | 4 | 2 | 2 | No resistance was observed | No resistance was observed | significant effect | 2 | 1 | 8 | 100 | 75 ± 25^a μM | 50 | – | – | – | – | –
CCCCCCCCCCCC[N+](C)(C)CCC[N+](C)(CC)CCC[N+](C)(C)CCCCCCCCCCCC.[Br-].[Br-].[Br-] [12,3,2,3,12] | – | 100 | – | – | – | – | 0.5 | No resistance was observed | No resistance was observed | – | 1 | 0.5 | 8 | 100 | – | 100 | – | – | – | – | MBEC S. aureus [1, 14]: 100 µM; MIC E. coli (MC4100) [2, 14]: 1 µM; MIC E. faecalis (OG1RF) [3, 14]: 0.5 µM; MIC P. aeruginosa (PA01) [4, 14]: 2 µM; MIC S. aureus (SH1000) [5, 14]: 0.5 µM; resistance in serially passaged liquid culture, SH1000 (MSSA (SH1000); [15]): No resistance was observed; resistance in serially passaged liquid culture, USA300-0114 (CA-MRSA (USA300-0114) [6]; [15]): No resistance was observed; MIC HA-MRSA (ATCC33591) (HA-MRSA (ATCC 33591); [14]): 1 µM; MIC CA-MRSA (USA300-0114) (CA-MRSA (USA300-0114) [7]; [14]): 0.5 µM; Lysis20 [8, 14]: 8 µM; MBEC USA300-0114 [9, 14]: 100 µM; MBEC E. faecalis (E. faecalis biofilms; [14]): 100 µM
CCCCCCCCCCCC[N+](C)(C)CCC[N+](C)(C)CCC[N+](C)(C)CCCCCCCCCCCC.[Br-].[Br-].[I-] [12,3,1,3,12] | 100 | 100 | 1 | 1 | 2 | 0.5 | 1 | – | – | significant effect | 1 | 0.5 | 8 | 150 ± 50 | 50 µM | 200 | 2 | 2 | 8 | 1 | –
CCCCCCCCCCCC[N+](C)(C)CCCN(C)CCC[N+](C)(C)CCCCCCCCCCCC.[Br-].[Br-] [12,3,0,3,12] | 100 | 50 | ≤0.25 | ≤0.25 | 4 | 1 | 1 | – | – | significant effect | 0.5 | 1 | 4 | 150 ± 50 | 50 µM | 100 | 1 | 2 | 4 | 1 | –
CCCCCCCCCCCC[N+](C)(C)Cc1ccccc1.[Cl-] [Bn,12, benzyldimethyldodecylammonium chloride, reference compound] | 200 | >200 | – | – | – | – | – | – | – | – | – | – | 63 | ≤200 | 200 µM | ≥200 | 32 | 8 | 63 | 8 | MIC ([2]; Escherichia coli): 32 µM; MIC ([3]; Enterococcus faecalis): 8 µM; MIC ([4]; Pseudomonas aeruginosa, PAO1, read-out: MIC P. aeruginosa): 63 µM; MIC ([5]; Staphylococcus aureus, MSSA, read-out: MIC MSSA): 8 µM; MIC ([5]; Staphylococcus aureus, MSSA, read-out: MIC S. aureus): 8 µM; resistance development in MSSA (in words) (MSSA (SH1000); Bn,12: 31 days (>700 generations), 10,10: 10 days, 240 generations): development of resistance; elevated concentration with consistent growth (MSSA (SH1000); at day 11): 2 ×MIC; elevated concentration with consistent growth (MSSA (SH1000); at day 24): 4 ×MIC; MIC (HA-MRSA (ATCC 33591); Staphylococcus aureus): 8 µM; MIC (CA-MRSA (USA300-0114) [7]; Staphylococcus aureus): 32 µM; potency against CA-MRSA strain possessing qacA/R (in words) (CA-MRSA (USA300-0114) [7]; compared with MSSA): decreased potency
CCCCCCCCCCCC[N+](C)(C)CC[N+](C)(C)CC[N+](C)(C)CCCCCCCCCCCC.[Br-].[Br-].[I-] [12,2,1,2,12] | 50 | 200 | 0.5 | ≤0.25 | 1 | ≤0.25 | 1 | – | – | – | 1 | 1 | 16 | ≥200 | 25 µM | >200 | – | – | – | – | MIC E. coli ([2]; Table 3): 0.5-4^a μM; MIC E. faecalis ([3]; Table 3): ≤0.25-4^a μM; MIC P. aeruginosa ([4]; Table 3): 1-8^a μM; MIC S. aureus ([5]; Table 3): ≤0.25-4^a μM
